In patent publication US20130123227A1, “NOVEL ORGANO-PALLADIUM COMPLEXES” (priority 2010, published 2013):

Assay: Seizure incidence in mice
Assay type: in vivo
Text: The original Pd-lipoic acid complex provides a structure in which the palladium is safely sequestered, and which is also active in the lipoic acid binding site in mitochondrial complex I, thereby coupling to enzymatic charge transfer. […] To eliminate seizure activity, the G10 stage of the synthetic complex was further investigated and combined with various substances, until there were no seizures. This was ultimately achieved by complexing with zinc-amino acid complexes.

C[C@@H](O)[C@H](N)C(=O)O.C[C@@H](O)[C@H](N)C(=O)O.[Zn] [Zn-bis(threonine)]
seizures: modulates and inhibits the seizure potentials
